Test system: TNFα secretion from murine elicited peritoneal macrophages
Experiment: Assay for inhibition of LPS-induced TNFα production
Assay type: cell-based, mouse
Conditions: preliminary experiments
Description: In order to assess the ability of a compound to reduce TNFα secretion in elicited mouse peritoneal macrophages, the following protocol was employed. […] (See Scales, W. E., S. W. Chensuc, I. Otterness and S. L. Kunkel, 1989, Regulation of monokine gene expression: Prostaglandin E2 suppresses tumor necrosis factor but not interleukin-1a or b-mRNA and cell-associated bioactivity, J. Leukocytc Biology 45:416-421.). (See also Renz, H., J-H. Gong, A. Schmidt, M. Nain and Diethard Gemsa, 1988, Release of tumor necrosis factor-a from macrophages. Enhancement and suppression are dose-dependently regulated by prostaglandin E2 and cyclic nucleotides, J. Immunol. 1 41:2388-2393). […] (See Noel, L. S., M. Verghese, K. M. Connelly, L. J. Sekut and S. A. Stimpson, 1992, Type IV-specific phosphodiesterase (PDE) inhibitors suppress murine TNFα expression in vitro and in vivo-(abstract)--6th International Conference, Inflammation Research Association). TNFα secretion from murine elicited peritoneal macrophages was used as a readout for a compound's ability to raise cAMP, and/or inhibit phosphodiesterase within a cell.
Mice (female C3H mice, 15-20 gm body weight) were injected intraperitoneally with 2 mL of 5 mM sodium periodate solution. […] TNFα protein in the supernatant fluids was measured using a commercially available enzyme-linked immunosorbant assay (ELISA) (Genzyme).

COc1ccc(C2CNC(=O)C2)cc1OC1CCCC1 (stereo not shown) [rolipram]
LPS induced TNFα secretion from murine macrophages: inhibited

— patent US5665754A, “Substituted pyrrolidines” (Glaxo Wellcome Inc., priority 1993, dated 1997)
